Data published in patent US5665515A, “Method for obtaining a printing plate according to the silver salt diffusion transfer process” (Agfa-Gevaert N.V., priority 1994, dated 1997).

Assay: pKa of the mercapto group by titration with hydrochloric acid in water
Assay type: physicochemical
Conditions: 0.002 mole/liter, dissolved at pH 11, titrated with 0.1 mole/liter hydrochloric acid
Protocol: The pKa of the mercapto-compounds in connection with the present invention were determined according to the method described in "Ionization Constants of Acids and Bases--A Laboratory Manual" written by Adrien Albert and E. P. Serjeant and Edited by John Wiley & Sons (New York) page 110-112 (1962).
In these particular cases, the compounds were dissolved in water at pH 11. The concentration of the compounds was 0.002 mole/liter and the mixture was then titrated with a solution of hydrochloric acid (0.1 mole/liter).

Row | pKa | SMILES
1 | 3.3 | CCCCN(CCCC)C(=O)Cn1nnnc1S [compound 2]
2 | 3.4 | CCCCCCCCn1nnnc1S [compound 4]
3 | 3.2 | CCCCn1nnnc1S [compound 5]
4 | 3.1 | Sc1nnnn1-c1ccccc1 [compound 6]
